Where a name gives a salt, the structure may show the parent alone. Read-outs that look alike come from different tables or passages of the source.

Data set [1] addresses T1, nicotinic acetylcholine receptors (Rattus norvegicus, UniProt P09483+P12390).
T1 construct: Fresh or frozen rat, brain tissue (hippocampus or cortex) was homogenized; from tissue
The data set can be described thus: inhibition of specific binding of ^3 H-methylcarbamylcholine (^3 H-MCC). To be noted: for IC50: rat cortical receptors, ^3 H-MCC 2 nM, 0° C., 60 min. The text has this:
The pharmacological properties of the compounds of the invention can be illustrated by determining their capability to inhibit the specific binding of ^3 H-methylcarbamylcholine (^3 H-MCC) (Abood and Grassi, Biochem. Pharmacol., Vol. 35, pp. 4199-4202, (1986)).
^3 H-MCC labels the nicotinic receptors in the CNS. The inhibitory effect on ^3 H-MCC binding reflects the affinity for nicotinic acetylcholine receptors.
Fresh or frozen rat, brain tissue (hippocampus or cortex) was homogenized in assay buffer (50 mM Tris-HCl, pH 7.4, 120 mM NaCl, 5 mM KCl, 2 mM CaCl2, 1 mM MgCl2) and centrifuged for 10 min. at 40.000×g. Pellets were subsequently reconstituted in assay buffer and an appropriate amount of tissue sample was mixed in tubes with ^3 H-methylcarbamylcholine (NEN, NET-951; final concentration 2 nM) and test drug. The tubes were incubated at 0° C. for 60 min. Unbound ligand was separated from bound ligand by vacuum filtration through GF/B filters presoaked in 0.5% polyethylenimine. Filters were washed three times with 5 ml wash buffer (50 mM Tris-HCl, pH 7.4) and transferred to vials. 4 ml scintillation fluid was added and the radioactivity was measured by scintillation counting. Unspecific binding was measured with 10 μM nicotine.
The IC50 values of the test compounds were determined by nonlinear regression analyses (GraphPad InPlot).
Table I illustrates the affinity of the compounds of the present invention for nicotinic and muscarinic receptors as determined by ^3 H-MCC and ^3 H-Oxo binding to rat cortical receptors. The compounds, however, show selective affinity for nicotinic receptors as compared to muscarinic receptors, i.e OXO/MCC>1.

The target in data set [2] is muscarinic acetylcholine receptors. The data set can be described thus: inhibition of specific binding of ^3 H-Oxotremorine-M (^3 H-Oxo). Particulars: rat cortical receptors; ^3 H-Oxotremorine 1.0 nM, 25° C., 30 min. The text has this:
Furthermore, the pharmacological properties of the compounds of the invention can also be illustrated by determining their capability to inhibit the specific binding of ^3 H-Oxotremorine-M (^3 H-Oxo). Birdsdall N. J. M., Hulme E. C., and Burgen A. S. V. (1980). "The Character of Muscarinic Receptors in Different Regions of the Rat Brain". Proc. Roy. Soc. London (Series B) 207,1.
^3 H-Oxo labels muscarinic receptor in the CNS (with a preference for agonist domains of the receptors). Three different sites are labelled by ^3 H-Oxo. […] Using the present experimental conditions only the high and medium affinity sites are determined.
The inhibitory effects of compounds on ^3 H-Oxo binding reflects the affinity for muscarinic acetylcholine receptors.
All preparations are performed at 0-4° C. unless otherwise indicated. […]
The final pellet is homogenized in 20 mM Hepes pH: 7.4 (100 ml per g of original tissue) and used for binding assay. […] Non-specific binding is determined in triplicate using arecoline (1 ug/ml, final concentration) as the test substance. […] The amount of radioactivity on the filters are determined by conventional liquid scintillation counting. […]
Table I illustrates the affinity of the compounds of the present invention for nicotinic and muscarinic receptors as determined by ^3 H-MCC and ^3 H-Oxo binding to rat cortical receptors. […]

The target is the same in data set [3]. Particulars: read-out: affinity of ^3 H-Oxo labelled site, cited from earlier work.
The next data set deals with cognition. To be noted: age related; cited from earlier work.
Data set [4] deals with dopamine release in the nucleus accumbens. Particulars: nucleus accumbens versus striatum; cited from earlier work.
Another data set has as its system substantia nigra. To be noted: chronic nicotine; lesioning; cited from earlier work.
Another data set deals with dopaminergic effects. To be noted: various behavioral models; cited from earlier work.
The next data set relates to attention and memory. Particulars: healthy humans and Alzheimer's disease patients; cited from earlier work.
A further data set relates to Tourette's syndrome. To be noted: in vivo; cited from earlier work.

T1 sequence (P09483 31-630): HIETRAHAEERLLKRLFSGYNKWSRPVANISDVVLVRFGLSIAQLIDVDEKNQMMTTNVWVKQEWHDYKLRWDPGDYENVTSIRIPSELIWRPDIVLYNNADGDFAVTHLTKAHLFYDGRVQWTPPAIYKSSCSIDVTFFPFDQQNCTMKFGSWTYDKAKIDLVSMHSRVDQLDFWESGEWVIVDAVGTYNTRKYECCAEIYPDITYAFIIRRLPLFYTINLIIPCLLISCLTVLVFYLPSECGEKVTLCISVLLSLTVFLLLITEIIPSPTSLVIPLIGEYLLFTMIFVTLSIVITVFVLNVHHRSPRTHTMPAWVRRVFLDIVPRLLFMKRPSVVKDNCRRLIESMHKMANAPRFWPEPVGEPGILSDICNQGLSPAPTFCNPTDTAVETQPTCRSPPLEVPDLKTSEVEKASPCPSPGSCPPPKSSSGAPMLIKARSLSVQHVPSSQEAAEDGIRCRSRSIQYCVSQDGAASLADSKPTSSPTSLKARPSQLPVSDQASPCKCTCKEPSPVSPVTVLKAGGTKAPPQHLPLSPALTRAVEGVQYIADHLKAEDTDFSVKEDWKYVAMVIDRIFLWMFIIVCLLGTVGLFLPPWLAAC
T1 sequence (P12390 25-500): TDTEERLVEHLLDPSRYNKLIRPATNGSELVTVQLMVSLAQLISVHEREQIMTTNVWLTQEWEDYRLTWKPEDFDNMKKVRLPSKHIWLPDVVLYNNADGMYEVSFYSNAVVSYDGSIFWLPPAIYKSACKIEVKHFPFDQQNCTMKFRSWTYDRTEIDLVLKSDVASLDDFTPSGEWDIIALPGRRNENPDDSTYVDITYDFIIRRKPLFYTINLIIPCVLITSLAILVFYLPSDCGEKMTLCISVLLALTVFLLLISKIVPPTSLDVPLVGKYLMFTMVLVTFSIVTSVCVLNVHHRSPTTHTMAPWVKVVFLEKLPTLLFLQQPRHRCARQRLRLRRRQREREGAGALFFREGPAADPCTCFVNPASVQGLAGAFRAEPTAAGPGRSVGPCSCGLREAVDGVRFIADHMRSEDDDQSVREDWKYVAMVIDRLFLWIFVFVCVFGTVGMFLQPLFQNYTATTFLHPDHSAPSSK

A word on the IC50: it is the concentration at which inhibition is half-maximal. A low value points to inhibition by little substance. For `CC(=O)/C=C1\CN2CCC1CC2.O=C(O)C(=O)O` [Compound 1, (Z)-3-Acetylmethylene-1-azabicyclo[2.2.2]octane oxalate], the IC50 was determined as 23 nM in [1] and 1200 nM in data set [2]. In [1] (selectivity nicotinic versus muscarinic: ^3 H-Oxo IC50 / ^3 H-MCC IC50), the “Oxo/MCC Ratio” value was 52.
In the case of `CC(=O)/C=C1/CN2CCC1CC2` [Compound 2, (E)-3-Acetylmethylene-1-azabicyclo[2.2.2]octane oxalate], the IC50 was > 300 nM in data set [1] and < 1000 nM in data set [2].
In the case of `C[N+](C)(C)CC#CCN1CCCC1=O` [^3 H-Oxo, ^3 H-Oxotremorine-M], the Kd is 1.8 nM in data set [3] (high affinity site); 20 nM in data set [3] (medium affinity site); 3000 nM in data set [3] (third (lowest affinity) site, not determined under the present conditions).
In the case of `CNC1(C)C2CCC(C2)C1(C)C` (centres unmarked) [mecamylamine], the cognitive impairment entry in the data set on cognition was “shown to cause cognitive impairment in an age related way”.
In the case of `CN1CCCC1c1cccnc1` (centres unmarked) [nicotine], the “stimulation of dopamine release” value in [4] is on record as “stimulates dopamine release in the nucleus accumbens more potently than in striatum”. For the same molecule, the “protection against cell loss in the substantia nigra” value in the data set with substantia nigra is recorded as “may protect against cell loss in the substantia nigra caused by lesioning”. In addition, the “potentiation of dopaminergic effects” value in the data set on dopaminergic effects is reported as “will potentiate dopaminergic effects in various behavioral models”. Besides, in the data set on attention and memory, the attention and memory entry was “improved attention and memory in healthy humans”. In addition, in the data set on Tourette's syndrome, the “effects in Tourette's syndrome” value was “shown beneficial effects in Tourette's syndrome”.

Values taken from patent US5936088A, “Substituted azacyclic or azabicyclic compounds with affinity and selectivity for nicotinic cholinergic receptors” (Novo Nordisk A/S, priority 1995, dated 1999).
